Results on ten molecules are retold here after patent US5486516A, “Furopyrimidine derivatives” (DowElanco, priority 1993, dated 1996).

Test [1] relates to Botrytis cinerea (gray mold). Put plainly: Plant pathology screen (Test 1), gray mold on grape berries. Particulars: read-out: GRAY MOLD control rating.
Test [2] relates to Erysiphe graminis tritici (powdery mildew). Put plainly: Plant pathology screen (Test 1), powdery mildew on wheat. The note with it: Blumeria graminis, in Triticum aestivum, foliar, read-out: POWD MDEW control rating.
Test [3] deals with Pyricularia oryzae (rice blast). Put plainly: whole plant or invertebrate. Particulars: foliar, read-out: RICE BLAST control rating. The test is classed as in vivo.
The test system of test [4] is Puccinia recondita tritici (leaf rust). The test can be described thus: Plant pathology screen (Test 1), leaf rust on wheat. The note with it: in Triticum aestivum, foliar, read-out: LEAF RUST control rating.
Test [5] deals with southern armyworm (Spodopetra eridania Cramer). Put plainly: Mite/insect screen, Southern armyworm. In kind it is in vivo. The note with it: Spodoptera eridania, sprayed leaves, read-out: SAW results (percent mortality); for mortality at 200 ppm: rate 200 ppm; for mortality at 400 ppm: rate 400 ppm. Put shortly:
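Compounds in acetone/alcohol with Toximul emulsifiers, diluted in water, sprayed to runoff on squash leaves at 10 psi and dried 1 h. Excised treated leaves fed to southern armyworm larvae in Petri dishes; percent mortality scored after standard exposure.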

Test [6] relates to Southern corn rootworm (Diabrotica undecimpuctata howardi Barber). Put plainly: Mite/insect screen, corn rootworm. In kind it is in vivo. Particulars: Diabrotica, soil, read-out: CRW results (percent mortality); for mortality at 12 ppm: CRW rate 12.00 ppm; for mortality at 24 ppm: CRW rate 24.00 ppm. Put shortly: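 Compound in acetone/alcohol with emulsifiers, diluted with water; 1 mL applied to 15 g dry sandy soil holding a presoaked corn seed. After 6–12 h drying, five 2-3 instar larvae added, held at 23° C; percent mortality and phytotoxicity scored after standard exposure periods.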

In test [7] the test system is melon aphids (Aphis gossvpii Glover). The test can be described thus: Mite/insect screen, melon aphids. In kind it is in vivo. Particulars: Aphis, sprayed leaves, read-out: MA results (percent mortality); for mortality at 200 ppm: rate 200 ppm; for mortality at 400 ppm: rate 400 ppm. The method, boiled down: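 Aphids established on squash cotyledons were sprayed to runoff with compound in acetone/alcohol with sulfonate/nonionic emulsifiers, diluted in water to test concentrations. Leaves dried 1 h. Percent mortality scored after standard exposure periods.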

Test [8] deals with Pseudoperonospora cubensis (downy mildew). The test can be described thus: Plant pathology screen (Test 1), downy mildew on squash. Particulars: foliar, read-out: DOWN MDEW control rating.
Procedure: The test compounds were formulated for application by dissolving 50 mg of the compound into 1.25 ml of solvent. The solvent was prepared by mixing 50 ml of "Tween 20" (polyoxyethylene (20) sorbitan monolaurate emulsifier) with 475 ml of acetone and 475 ml of ethanol. The solvent/compound solution was diluted to 125 ml with deionized water. The resulting formulation contains 400 ppm test chemical. Lower concentrations were obtained by serial dilution with the solvent-surfactant mixture.
The formulated test compounds were applied by foliar spray. The following plant pathogens and their corresponding plants were employed.
The formulated technical compounds were sprayed on all foliar surfaces of the host plants (or cut berry) to past run-off. Single pots of each host plant were placed on raised, revolving pedestals in a fume hood. Test solutions were sprayed on all foliar surfaces. All treatments were allowed to dry and the plants were inoculated with the appropriate pathogens within 2-4 hours.
The effectiveness of test compounds in controlling disease was rated using the following scale.
Test [9] has as its system Twospotted spider mites (Tetranychus urticae Koch). The test can be described thus: Mite/insect screen, twospotted spider mites. In kind it is in vivo. Particulars: Tetranychus urticae, sprayed leaves, read-out: SM results (percent mortality); for mortality at 200 ppm: rate 200 ppm; for mortality at 400 ppm: rate 400 ppm. Put shortly:
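Squash cotyledons infested with mites were sprayed to runoff at 10 psi with compound in acetone/alcohol plus emulsifiers, diluted in water to the stated concentrations. Percent mortality and phytotoxicity were scored after standard exposure periods.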

As to `Cc1oc2ncnc(NCC(Cc3ccc(F)cc3)c3ccc(Cl)cc3)c2c1C` (stereo not shown) [Example 26, N-[2-(4-chlorophenyl)-3-(4-fluorophenyl)propyl]-5,6-dimethylfuro[2,3-d]pyrimidin-4-amine], the pest or weed control at 400 µg/mL in [1], in test [2], in test [3], in test [4] and in test [8] was 0 to 19% in each case. Besides, the mortality at 200 ppm in test [5], in test [7] and in [9] was 0% in each case. For the same molecule, the mortality at 400 ppm in test [5], in test [7] and in test [9] was 0% throughout. Also, in [6], the mortality at 12 ppm came out at 0%. The mortality at 24 ppm in test [6] was 0%.

In the case of `COc1ccc(CCNc2ncnc3occ(C)c23)cc1OC` [Example 27, N-[2-(3,4-dimethoxyphenyl)ethyl]-5-methylfuro[2,3-d]pyrimidin-4-amine], the pest or weed control at 400 µg/mL in [1] was 0 to 19%; in test [2] it was 0 to 19%; in test [3], 0 to 19%; in test [4], 90 to 100%; in [8], 90 to 100%. The mortality at 200 ppm in [5], in test [7] and in test [9] was 0% throughout. Also, the mortality at 400 ppm in [5], in [7] and in [9] was 0% each time. Also, in test [6], the mortality at 12 ppm is 0%. The mortality at 24 ppm in [6] came out at 0%.

Turning to `COc1ccccc1Oc1ncnc2oc(C)c(C)c12` [Example 28, 5,6-dimethyl-4-(2-methoxyphenoxy)furo[2,3-d]pyrimidine], the pest or weed control at 400 µg/mL in test [1], in test [2], in test [3], in test [4] and in test [8] was 0 to 19% in each case. Further, the mortality at 200 ppm is 0% in test [5], 30% in test [7] and 90% in test [9]. Also, the mortality at 400 ppm in test [5], in test [7] and in [9] was 0% throughout. The mortality at 12 ppm in [6] was 0%. In addition, in test [6], the mortality at 24 ppm stood at 0%.

On to `Cc1ccccc1Oc1ncnc2oc(C)c(C)c12` [Example 29, 5,6-dimethyl-4-(2-methylphenoxy)furo[2,3-d]pyrimidine], for which the pest or weed control at 400 µg/mL in test [1] lay in the range of 0 to 19%; in test [2], 20 to 89%; in [3], 20 to 89%; in test [4] it was 20 to 89%; in [8] it was 20 to 89%. In addition, the mortality at 200 ppm in [5], in test [7] and in [9] was 0% each time. Besides, the mortality at 400 ppm in test [5], in [7] and in test [9] was 0% in each case. Also, the mortality at 12 ppm in test [6] is 0%. The mortality at 24 ppm in test [6] was 0%.

Turning to `COc1ccc(CCNc2ncnc3oc4c(c23)CCCC4)cc1` [Example 30, N-[2-(4-methoxyphenyl)ethyl]-5,6,7,8-tetrahydrobenzofuro[2,3-d]pyrimidin-4-amine], the pest or weed control at 400 µg/mL lay within 0 to 19% in [1]; 0 to 19% in test [2]; 0 to 19% in [3]; 20 to 89% in test [4]; 20 to 89% in test [8]. Moreover, the mortality at 200 ppm in [5], in [7] and in test [9] was 0% throughout. In addition, the mortality at 400 ppm was 90% in [5], 0% in test [7] and 0% in [9]. The mortality at 12 ppm in [6] was 0%. The mortality at 24 ppm in [6] stood at 0%.

As for `Cc1cc2c(NCCc3ccc4ccccc4c3)ncnc2o1` [Example 31, 6-methyl-N-[2-(2-naphthalenyl)ethyl]furo[2,3-d]pyrimidine-4-amine], the pest or weed control at 400 µg/mL in [1] is 0 to 19%; in test [2] it was 20 to 89%; in [3], 20 to 89%; in test [4], 90 to 100%; in test [8], 90 to 100%. Moreover, the mortality at 200 ppm in test [5] was 100%; in test [7], 90%; in test [9] it was 20%. Moreover, the mortality at 400 ppm was determined as 80% in [5], 0% in test [7] and 100% in [9]. Besides, in [6], the mortality at 12 ppm was 0%. Moreover, in [6], the mortality at 24 ppm came out at 0%.

For `Cc1cc2c(OCCC34CC5CC(CC(C5)C3)C4)ncnc2o1` [Example 38, 6-methyl-4-[2-(1-adamantyl)ethoxy]furo[2,3-d]pyrimidine], the pest or weed control at 400 µg/mL in [1], in test [2], in [3], in test [4] and in [8] was 0 to 19% in each case. Besides, the mortality at 200 ppm in [5], in test [7] and in [9] was 0% each time. Besides, the mortality at 400 ppm in test [5], in [7] and in test [9] was 0% each time. Further, the mortality at 12 ppm in [6] stood at 0%. In addition, the mortality at 24 ppm in [6] came out at 0%.

As for `Cc1cc2c(OCCc3ccc(OCc4ccccc4)cc3)ncnc2o1` [Example 39, 6-methyl-4-[2-[4-(phenylmethoxy)phenyl]ethoxy]furo[2,3-d]pyrimidine], the pest or weed control at 400 µg/mL in test [1] fell in the range of 0 to 19%; in test [2] it was 0 to 19%; in test [3], 0 to 19%; in test [4], 90 to 100%; in test [8] it was 0 to 19%. In addition, the mortality at 200 ppm in test [5], in test [7] and in [9] was 0% each time. Moreover, the mortality at 400 ppm in test [5] worked out at 0%; in test [7], 10%; in test [9], 0%. For the same molecule, the mortality at 12 ppm in test [6] was found to be 0%. Further, the mortality at 24 ppm in [6] is 0%.

For `COc1ccc(CCOc2ncnc3oc(C)cc23)cc1` [Example 40, 6-methyl-4-[2-(4-methoxyphenyl)ethoxy]furo[2,3-d]pyrimidine], the pest or weed control at 400 µg/mL was in the range of 0 to 19% in [1]; 20 to 89% in test [2]; 0 to 19% in test [3]; 90 to 100% in test [4]; 90 to 100% in [8]. In addition, the mortality at 200 ppm in [5], in test [7] and in test [9] was 0% throughout. For the same molecule, the mortality at 400 ppm in [5] worked out at 0%; in test [7], 80%; in test [9] it was 20%. In addition, the mortality at 12 ppm in [6] worked out at 0%. Moreover, the mortality at 24 ppm in test [6] came to 0%.

For the molecule `Cc1oc2ncnc(OCCc3ccc(Oc4ccc(C(F)(F)F)cc4)cc3)c2c1C` [Example 41, 5,6-dimethyl-4-[2-[4-[4-(trifluoromethyl)phenoxy]phenyl]ethoxy]furo[2,3-d]pyrimidine], the pest or weed control at 400 µg/mL in test [1] is 0 to 19%; in test [2], 90 to 100%; in [3], 20 to 89%; in test [4] it was 90 to 100%; in test [8], 90 to 100%. The mortality at 200 ppm in test [5], in [7] and in test [9] was 0% throughout. Also, the mortality at 400 ppm came to 0% in test [5], 100% in [7] and 100% in [9]. Also, the mortality at 12 ppm in test [6] turned out to be 0%. Moreover, the mortality at 24 ppm in test [6] came out at 60%.

By mortality is commonly meant the share of the test organisms that died.
